Consider one compound from EP0145314A1, “Antifungal triazole compound” (IMPERIAL CHEMICAL INDUSTRIES PLC, priority 1983, dated 1985).

The structures appear in SMILES notation.

Data set [1] can be described thus: Teratogenicity / maternal toxicity in the rabbit. It counts as in vivo. As to conditions: lowest dose at which impaired maternal weight gain was observed. The procedure: As indicated above, the compound of this invention has been found not to be teratogenic at doses up to the maternally toxic dose. In both the rabbit and the rat, the maternally toxic dose was taken to be the lowest dose at which impaired maternal weight gain was observed. In the rabbit, this dose was 10 mg./kg. and in the rat between 25 and 50 mg./kg.

The subject of data set [2] is Candida albicans and Trichophyton mentagrophytes var. quinkeanum. The experiment in a line: Oral antifungal test in mice inoculated with Candida (vagina) and Trichophyton (back), minimum effective dose. It is filed as in vivo. As to conditions: 168 h; female mice, oral dosing twice on day 0 and once daily on days 1-4; skin lesions scored and vaginal samples cultured on day 7; read-out: minimum effective dose (MED). On the procedure:
The following Monday (day 0) they are clipped on the back and then dosed orally with the test compound. They are then inoculated with Candida albicans in the vagina and Trichophyton mentagrophytes var. quinkeanum on the back, and then given a second dose of the same compound. Dosing is repeated once daily on days 1-4. On day 7 skin lesions are scored visually and vaginal samples taken for culture on agar. Groups of 5 mice are used and the compound is dosed initially at a level of 250 mg./kg. The dose is then reduced sequentially until a minimum effective dose (MED) is found. The MED for 2-(2-fluoro-4-trifluoromethylphenyl)-l,3-di(l,2,4-triazol-l-yl)-2-propanol in this test was 5 mg. per kg.

In turn, `OC(Cn1cncn1)(Cn1cncn1)c1ccc(C(F)(F)F)cc1F` [2-(2-fluoro-4-trifluoromethylphenyl)-l,3-di(l,2,4-triazol-l-yl)-2-propanol] came in with a maternally toxic dose in data set [1] of 10 mg/kg. The minimal effective dose in data set [2] came out at 5 mg/kg.
